{
  "source": "paper PMC5317004",
  "about": "(Scientific Reports, 2017)",
  "key": {"[1]": {"tested_on": "chimeric α7-GluClβR", "experiment": "IVM added after activation by ACh: kinetics and extent of current decline (whole-cell patch clamp)", "format": "cell-based, chick nAChR α7 / C. elegans GluClβ", "protocol": "Following a further wash (for a minute), the same cell was challenged again with a 5-μM-IVM solution (in 0.01% DMSO; red bar, arrow and trace). Recordings were performed at −60 mV. (B) Time constant of current decline (τd). Values of τd were determined by exponential fits to the declining phase of the currents using Eq. 3. […] Error bars correspond to SEM of N = 6 and N = 5 cells for recordings at −60 mV and −20 mV, respectively. Paired, two-tailed Student’s t-tests indicate that for not significant (“ns”) P > 0.3, and ** 0.001 < P < 0.005.\nFigure 8 The inhibition of ACh-elicited currents by addition of IVM is irreversible. […] (B) Representative currents for the same experiment as in A, but with the exception of IVM (0.5 μM) addition after the ACh-elicited current reached to its peak (IP1). Inset, magnification of the indicated segment of the current trace. In both panels A and B, black bars above the current traces indicate ACh or IVM applications. […] Error bars correspond to SEM. Unpaired, two-tailed Student’s t-tests indicate *** P < 0.0001.\nThe declining phase of the currents was fitted with an exponential time course to give the time constant of current decline by using equation 3, […]\nI is the current, IP is the peak of the current, IS is the steady state current, t is the time, and τ is the time constant of current decline. […]\nSupplementary Materials and Methods\nThe structural mo del of the chi meric α7-GluClβR was built based on th e methodologies published previously1,2, and the sequence of the chimeric subunit is presented in […]\nDNA construct and preparation of cells for electrophysiological experiments The cDNA encoding the α7-GluClβ chimeric subunit was generated as described previously3, and was cloned into a pcDNA3.1 vector.\nChinese hamster ovary cells (CHO-K1, ATCC via Biological Industries Israel, Beit Haemek Ltd.) were cultured as performed previously2 in Dulbecco 's Modified E agle Med iu m (DMEM) containing 10% fetal calf serum (Biological Industries Israel Beit Haemek Ltd.), 2 mM glutamax, 100 Units/ml penicillin G and 100 μg/ml streptomycin, and grown in 5% CO2 at 37°C under 90-95% hu midity . CHO cells were seeded on glass coverslips (13-mm diameter) placed in a 24-multiwell plate. For the expression of the α7-GluClβR, cells were transiently transfected with the pcDNA3.1 plasmid containing the receptor’s ORF (200-600 ng per well) using transit-LT1 transfection reagent (Mirus, USA), according to the manufacturer’s protocol. pIRES-CD8 plas mid (200 ng per well) was also added to enable visualization of the ex pressing cells by beads coated with anti-CD8 antibodies (Invitrogen). For the expression of GluClβ ho mo mers, we used the pcDNA3.1 plas mid containing the GluClβ-subunit ORF (600-1000 ng per well), pIRES-CD8 plas mid (200 ng per well) and th e X-tremeGENE HP DNA Transfection Reagent (Roche Life Science). Recordings were performed 48-72 hours following transfection.\nWhole-cell patch clamp recordings\nRecordings were performed in the aforementioned CHO cells, as previously described1,2. Whole-cell patch clamp experiments were performed with normal external solution (NES) contained (in millimolar): 140 NaCl, 2.8 KCl, 2 CaCl2, 2 MgCl2, 10 glucose and 10 HEPES, adjusted to pH 7.35 with NaOH (310 mOsM). The pipette solution contained […]\n(in millimolar): 130 KCl, 4 MgCl2, 4 Na2ATP, 1 EGTA and 10 HEPES, adjusted to pH 7.35 with KOH (290 mOsM). The osmolarity of these solutions was maintained by adding sucrose.\nThe electrode resistance was 6-10 MΩ when filled with the pipette solution. External solutions were applied onto the cell by using the VC-77SP fast-step system (Warner Instruments, CT, USA) combined with N2 pressure of 3-4 psi to produce laminar flow of the external solution onto the patched cell. All measurements were performed at 25 °C. The currents w ere measured with an Axopatch 200B patch-clamp amplifier (Molecular Devices, Sunnyvale, CA) and a Digidata 1440A interface (Molecular Devices). […]"}, "[2]": {"settings": "LUVs 6 mM, 5 minutes incubation plus 20-minutes ultracentrifugation; depending on the LUVs' lipid composition; cited from earlier work"}, "[3]": {"settings": "30 μM ACh + 0.5 μM IVM, 9.6 sec, N = 10"}},
  "note": "Where “and” joins values, the source holds several entries; their conditions need not be identical. Equal entries are not always repeated.",
  "data": [
    {"smiles": "CC[C@H](C)[C@H]1O[C@]2(CC[C@@H]1C)C[C@@H]1C[C@@H](C/C=C(\\C)[C@@H](O[C@H]3C[C@H](OC)[C@@H](O[C@H]4C[C@H](OC)[C@@H](O)[C@H](C)O4)[C@H](C)O3)[C@@H](C)/C=C/C=C3\\CO[C@@H]4[C@H](O)C(C)=C[C@@H](C(=O)O1)[C@]34O)O2", "note": "[IVM, Ivermectin]", "values": [
      {"measurement": "reduction of time constant of current decline (τd)", "setting": "[1]; 5 μM IVM added after peak of 350 μM ACh response, −60 mV and −20 mV", "result": "more than two folds"},
      {"measurement": "τd1 amplitude percentage (%A)", "setting": "[1]; 30 μM ACh + 0.5 μM IVM", "result": "55 ± 10", "unit": "%"},
      {"measurement": "τd2 amplitude percentage (%A)", "setting": "[1]; 30 μM ACh + 0.5 μM IVM", "result": "45 ± 10", "unit": "%"},
      {"measurement": "τd1, time constant of current decline", "setting": "[1]; [3]", "result": "3370 ± 318", "unit": "ms"},
      {"measurement": "τd2, time constant of current decline", "setting": "[1]; [3]", "result": "987 ± 120", "unit": "ms"},
      {"measurement": "time between the start of application and the onset of effect", "setting": "[1]; six experiments as in Fig. 5A, 350 μM ACh, 5 μM IVM", "result": "132 ± 24", "unit": "milliseconds"},
      {"measurement": "depletion of IVM from the aqueous solution", "setting": "[2]", "result": "50% and 70%"}
    ]}
  ]
}
